According to paper PMC7115756 (Journal of Medicinal Chemistry, 2020):
“Also recorded” adds a separate entry of the source.

Legend:
[1] = biological target: TTR/Aβ(1–42) complex (Homo sapiens, UniProt P02766); experiment: ITC, ternary complex: [TTR + stabilizer] titrated with Aβ; assay type: binding; settings: compared with TTR/Aβ(1–42) without stabilizer
[2] = biological target: TTR/Aβ(12–28) complex (Homo sapiens, UniProt P02766); experiment: as above; assay type: binding; settings: compared with TTR + Aβ(12–28) without stabilizer
[3] = tested on: mice model of AD; settings: in vivo administration; cited from earlier work
[4] = biological target: TTR (Homo sapiens, UniProt P02766); experiment: ITC, binary complex TTR + Aβ peptide; assay type: binding; settings: thermograms of binary complexes; HEPES/glycine pH 7.4, 5% DMSO, 25 °C

chaperoning effect on the TTR/Aβ(1–42) interaction (in words) [1] | interaction with TTR by ITC (in words) [4] | Compound | other results
chaperoning effect could not be observed |  | O=C(O)c1cc(-c2ccc(F)cc2F)ccc1O [Diflunisal, 5-(2,4-difluorophenyl)-2-hydroxy-benzoic acid] | effect of the stabilizer on the TTR/Aβ(12–28) complex (in words) ([2]; listed as diflunisal (1)): do not enhance the TTR/Aβ interaction; also recorded: negligible
cooperative effect |  | O=C(O)c1cc(-c2ccc(F)cc2F)cc(I)c1O [IDIF, 2',4'-difluoro-4-hydroxy-5-iodo-1,1'-biphenyl-3-carboxylic acid] | effect of the stabilizer on the TTR/Aβ(12–28) complex (in words) [2]: stabilizing; effect in AD mice (brain Aβ, cognition) [3]: decrease in brain Aβ levels and deposition
 |  | O=C(O)c1ccc2nc(-c3cc(Cl)cc(Cl)c3)oc2c1 [Tafamidis, 2-(3,5-dichlorophenyl)-1,3-benzoxazole-6-carboxylic acid] | chaperoning effect on the TTR/Aβ(1–42) interaction (in words) ([1]; listed as Tafamidis (2)): negligible effect; also recorded: chaperoning effect could not be observed; also recorded: not detected; effect of the stabilizer on the TTR/Aβ(12–28) complex (in words) ([2]; listed as Tafamidis (2)): do not enhance the TTR/Aβ interaction; also recorded: negligible
 | no significant interaction | DAEFR HDSGY E [Aβ(1–11) (5)] | 
 | no significant interaction | EDVG SNKGA IIGLM [Aβ(25–35) (8)] | 
 | very low enthalpy change | Y EVHHQ KLVFF [Aβ(10–20) (6)] | 
